From patent publication US20080227832A1, “Modified Coffee, Method of Roasting Coffee Bean, Coffee-Like Supplement and Auxiliary Food” (TAMA-TLO Corporation, priority 2004, published 2008)
Read-outs that look alike come from different tables or passages of the source. One block for each molecule: values may come before it.

Key:
[1] = Metabolites in 24-hour urine of rats given Maillard reaction products orally (HPLC); conditions: rat
Description: Then, 100 μl of acetonitrile/phosphate buffer (7/93) adjusted to pH 2.0 was injected into the HPLC apparatus through the injection microsyringe. The apparatus and the experimental conditions were the same as those described above.
The specification of the HPLC apparatus and experimental conditions were the same as described above.

male Wistar rats [2] = assay: Blood free-fatty acid level time course after 5-MPCA; assay type: in vivo, rat; conditions: 50 mg/kg, 1, 2, 4 and 6 hours after administration
Description: Further, using four-week-old male Wistar rats, the following experiment was performed. A control group was administered with physiological saline. A test group was administered with a solution of 50 mg/kg of 5-methylpyrazine-2-carboxylic acid (5-MPCA) dissolved in physiological saline. Immediately before starting the administration and 1, 2, 4, and 6 hours after the administration, each 6 rats were decapitated and blood was collected from each rat. According to a conventional method, plasma was separated from each sample blood and blood levels of free-fatty acid (FFA) were determined using a kit for determining free-fatty acid level. […] That is, FIG. 10 is a diagram showing the effect of 5-methylpyrazinecarboxylic acid on the blood free-fatty acid level of the rats.

[3] = tested on: absorption of glucose in digestive tracts; conditions: animal test; cited from earlier work
male Wistar rats [4] = tested on: male Wistar rats
male Wistar rats [5] = conditions: oral, 10 mg/kg nicotinic acid alone
[6] = Water solubility as described for addition to liquid foods; assay type: physicochemical
Description: The case where the above-mentioned group A to C compounds are added to any liquid foods and beverages (coffee, refreshing beverages, etc.) or hydrophilic solutions (for example, aqueous solutions and alcohol solutions) is described hereinbelow. […] Since the group B compounds are water-soluble but have strong volatility, it is recommended that simple dissolution thereof may be performed after concentration of a coffee extract and freeze-drying, if any. […] Since the group C compounds are water-soluble but have weak volatility, they may be simply dissolved similarly to the group B compounds.

insulin sensitivity = conditions: rat, in vivo; cited from earlier work

Molecule: O=C(/C=C/c1ccc(O)c(O)c1)O[C@@H]1C[C@](O)(C(=O)O)C[C@@H](O)[C@H]1O [Chlorogenic acid, chlorogenic acid]
- speed of absorption of glucose in digestive tracts [3]: reducing a speed of absorption of glucose in digestive tracts

Molecule: O=Cc1ccc[nH]1 [pyrrole-2-aldehyde]
- recovery in urine (in words) ([1]; 50 mg/kg oral, urine collected after 24 hours): almost quantitative

Molecule: chlorogenic lactone
- insulin sensitivity (insulin sensitivity): Enhancement of insulin sensitivity

Second part, led by results:

- conversion by metabolism in liver ([1]; 50 mg/kg, 24-hour urine): converted into a group C compound
Molecule: Cc1cnc(C)cn1 [2,5-dimethylpyrazine]

- rebound phenomenon of blood free-fatty acid level (male Wistar rats [2]): no rebound phenomenon
Molecule: Cc1cnc(C(=O)O)cn1 [5-MPCA, 5-methyl-pyrazine-2-carboxylic acid]

- time after which rebound phenomenon was observed (male Wistar rats [4]; 10 to 20 mg/kg): 2 h
- time after which rebound phenomenon was observed (male Wistar rats [4]; oral, 5 mg/kg): 1 h
- time after which rebound phenomenon was observed (male Wistar rats [4]; oral, 10 mg/kg): 2 h
- time after which rebound phenomenon was observed (male Wistar rats [4]; oral, 50 mg/kg): 4 h
- rebound phenomenon after 1 hour of the administration (male Wistar rats [5]): present in a mixed manner
Molecule: O=C(O)c1cccnc1 [nicotinic acid]
- blood free-fatty acid level after 30 minutes of the administration (male Wistar rats [4]; oral, any dose of from 5 mg/kg to 50 mg/kg): ≤ 0.5 mEq/l
- rebound phenomenon after 2 hours of the administration (male Wistar rats [5]): all the animals showed the rebound phenomenon

- water solubility [6]: hardly water-soluble
Molecule: Cc1nc(C)c(C)nc1C [tetramethylpyrazine]
